Test results taken from ChEMBL document CHEMBL4024702, “Covalent Modifiers: A Chemical Perspective on the Reactivity of α,β-Unsaturated Carbonyls with Thiols via Hetero-Michael Addition Reactions” (J Med Chem, 2017).
pEC50, pIC50, pKd: −log10 of the molar value. One block for each compound: values may come before it.

Tests used:
[1] = Inhibition of PI3K (unknown origin); parameters: species or system Homo sapiens
[2] = Cysteamine reactivity of the compound in TRIS-HCL assessed as second order rate constant at 40 uM and pH 7.4 by stopped-flow assay
[3] = Lysine reactivity of the compound in aqueous buffer assessed as drug recovery after 6 days at pH 7.4
[4] = Cysteine reactivity of the compound assessed as second order rate constant by 1H NMR analysis
[5] = Glutathione reactivity of the compound in DMSO and phosphate buffer assessed as second order rate constant for adduct formation
Tetrahymena pyriformis = test: Toxicity in Tetrahymena pyriformis assessed as growth inhibition after 48 hrs
[6] = Thiol reactivity of the compound in PBS buffer assessed as pseudo-first order rate constant for adduct formation in presence of 4-nitrobenzenethiol at pH 7.4 by stop-flow spectrophotometric analysis
[7] = Glutathione reactivity of the compound in acetonitrile to tris-HCL buffer at pH 7.4 by NMR spectroscopic analysis
[8] = DTT reactivity of the compound in acetonitrile to tris-HCL buffer at pH 7.4 by NMR spectroscopic analysis
Papain (Carica papaya) = target: T1, Papain (Carica papaya) (UniProt P00784); test: Irreversible inhibition of Carica papaya papain assessed as ratio of Kinact to Ki
T1 sequence (whole entry): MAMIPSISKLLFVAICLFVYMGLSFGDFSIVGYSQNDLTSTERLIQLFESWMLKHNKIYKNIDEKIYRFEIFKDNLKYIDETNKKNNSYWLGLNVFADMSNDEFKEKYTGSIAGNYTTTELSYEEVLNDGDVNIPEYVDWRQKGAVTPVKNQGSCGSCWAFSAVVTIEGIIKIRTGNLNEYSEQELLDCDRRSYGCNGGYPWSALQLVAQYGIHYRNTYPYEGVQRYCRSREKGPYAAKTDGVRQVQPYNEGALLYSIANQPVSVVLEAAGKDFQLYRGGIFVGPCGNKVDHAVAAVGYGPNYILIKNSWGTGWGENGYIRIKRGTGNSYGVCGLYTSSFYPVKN

[9] = Thiol reactivity of the compound in PBS buffer assessed as adduct formation at 100 to 200 uM at pH 7.4 by UV-visible spectroscopic analysis
[10] = Glutathione reactivity of the compound in DMSO/HEPES buffer assessed as second order rate constant for adduct formation at pH 7.4 by spectroscopic analysis

pIC50 [1]: 10.00
SMILES: CO[C@H]1OC(=O)/C(=C\SC(C)C)C2=C(O)C(=O)C3=C([C@H](OC(C)=O)C[C@]4(C)C(=O)CC[C@@H]34)[C@]21C

SMILES: COc1ccc(C(=O)C(C#N)C(SCCN)c2ccc(OC)c(OC)c2)c(OC)c1 (centres undefined)
K [2]: 5700 M⁻¹ s⁻¹

SMILES: C=C(C)C(=O)O[C@H]1CC2=C[C@@H](C[C@@]3(C)O[C@H]3[C@H]3OC(=O)C(=C)[C@@H]31)OC2=O
Drug recovery [3]: 75%
K [4]: 20 M⁻¹ s⁻¹

SMILES: COc1ccc(C(=O)C(C(SCCN)c2ccc(OC)c(OC)c2)[N+](=O)[O-])c(OC)c1 (centres undefined)
K [2]: 750 M⁻¹ s⁻¹

SMILES: C=C(C)C(=O)OC
K [5]: 0.072 M⁻¹ s⁻¹
pEC50 (Tetrahymena pyriformis): 1.78

SMILES: Cc1cc(O)c(C)c(Sc2ccc([N+](=O)[O-])cc2)c1O
K [6]: 7.3 ×10⁻¹ /s

SMILES: O=[N+]([O-])c1ccc(Sc2cc(O)ccc2O)cc1
K [6]: 1.5 ×10³ /s

SMILES: O=C(/C=C/c1ccccc1)/C=C/c1ccccc1
Activity [7]: 0.15 M⁻¹ s⁻¹
DTT second-order rate constant [8]: 0.42 M⁻¹ s⁻¹

SMILES: O=C(/C=C/c1ccc(O)cc1)/C=C/c1ccc(O)cc1
Activity [7]: 0.001 M⁻¹ s⁻¹
DTT second-order rate constant [8]: 0.014 M⁻¹ s⁻¹

Ratio (Papain (Carica papaya)): 6.6 M⁻¹ s⁻¹
SMILES: COC(=O)/C=C/CNC(=O)[C@@H](CNC(C)=O)Cc1ccccc1

SMILES: O=C1/C(=C/c2ccccc2O)CC/C1=C\c1ccccc1O
Activity [7]: 87 M⁻¹ s⁻¹
DTT second-order rate constant [8]: 29 M⁻¹ s⁻¹

SMILES: COc1ccc(C(=O)C(Br)C(SCCN)c2ccc(OC)c(OC)c2)c(OC)c1 (centres undefined)
K [2]: 2.9 M⁻¹ s⁻¹

SMILES: C/C=C(\C)C=O [2-methyl-(E)-2-butenal]
K [5]: 0.474 M⁻¹ s⁻¹
pEC50 (Tetrahymena pyriformis): 2.86

pKd [9]: 2.21
SMILES: N#CC(C(N)=O)C(SCCO)c1cccc2[nH]ccc12 (centres undefined)

SMILES: C=C1C(=O)O[C@H]2[C@H]1[C@H](OC(=O)/C(C)=C\C)CC(=C)[C@@H]1[C@H](O)[C@H]3O[C@@]3(C)[C@@]12O
Drug recovery [3]: 75%
K [4]: 42 M⁻¹ s⁻¹

SMILES: CC(C)(C)c1cc(O)cc(Sc2ccc([N+](=O)[O-])cc2)c1O
K [6]: 2.3 ×10¹ /s

Ratio (Papain (Carica papaya)): 0.5 M⁻¹ s⁻¹
SMILES: COC(=O)/C=C/CNC(=O)C1CCN(C(=O)CC(C)C)CC1

SMILES: O=C1/C(=C/c2ccccc2)CC/C1=C\c1ccccc1
Activity [7]: 9.3 M⁻¹ s⁻¹
DTT second-order rate constant [8]: 2.3 M⁻¹ s⁻¹

pIC50 [1]: 9.30
SMILES: CO[C@H]1OC(=O)/C(=C\Sc2ccccc2)C2=C(O)C(=O)C3=C([C@H](OC(C)=O)C[C@]4(C)C(=O)CC[C@@H]34)[C@]21C

SMILES: C=CC(=O)CCC
K [5]: 1170 M⁻¹ s⁻¹
pEC50 (Tetrahymena pyriformis): 4.66

SMILES: Cc1cc(O)cc(Sc2ccc([N+](=O)[O-])cc2)c1O
K [6]: 3.2 ×10² /s

SMILES: CCN(CC)c1ccc2cc(C(SC[C@H](NC(=O)CC[C@H](N)C(=O)O)C(=O)NCC(=O)O)C(C(C)=O)C(C)=O)c(=O)oc2c1 (some centres undefined)
K [10]: 12 M⁻¹ s⁻¹

pKd [9]: 1.92
SMILES: N#CC(C(N)=O)C(SCCO)c1ccsc1 (centres undefined)

SMILES: CCCCCC#CC=O
K [5]: 487 M⁻¹ s⁻¹
pEC50 (Tetrahymena pyriformis): 4.72

Ratio (Papain (Carica papaya)): 0.4 M⁻¹ s⁻¹
SMILES: COC(=O)/C=C/CNC(=O)[C@H](CNC(C)=O)Cc1ccccc1

pKd [9]: 3.70
SMILES: CS(=O)(=O)c1ccc(-c2cccc(C(SCCO)C(C#N)C(N)=O)c2)cc1 (centres undefined)

SMILES: CCN(CC)c1ccc2cc(C(CC=O)SC[C@H](NC(=O)CC[C@H](N)C(=O)O)C(=O)NCC(=O)O)c(=O)oc2c1 (some centres undefined)
K [10]: 0.41 M⁻¹ s⁻¹

pKd [9]: 1.48
SMILES: N#CC(C(N)=O)C(SCCO)c1c[nH]cn1 (centres undefined)

SMILES: CCN(CC)c1ccc2cc(C(CC(=O)OC)SC[C@H](NC(=O)CC[C@H](N)C(=O)O)C(=O)NCC(=O)O)c(=O)oc2c1 (some centres undefined)
K [10]: 0 M⁻¹ s⁻¹

SMILES: COc1ccc(C(=O)C(C(SCCN)c2ccc(OC)c(OC)c2)C(F)(F)F)c(OC)c1 (centres undefined)
K [2]: 17 M⁻¹ s⁻¹

Ratio (Papain (Carica papaya)): 1.2 M⁻¹ s⁻¹
SMILES: COC(=O)/C=C/CNC(=O)c1cc(-c2ccc(C)cc2)no1

pKd [9]: 2.89
SMILES: N#CC(C(N)=O)C(SCCO)c1ccc(-n2ccnc2)cc1 (centres undefined)

SMILES: O=C(/C=C/c1ccccc1O)/C=C/c1ccccc1O
Activity [7]: 5 M⁻¹ s⁻¹
DTT second-order rate constant [8]: 2.5 M⁻¹ s⁻¹

SMILES: COC[C@H]1OC(=O)c2coc3c2[C@@]1(C)C1=C(C3=O)[C@@H]2CCC(=O)[C@@]2(C)C[C@H]1OC(C)=O [WORTMANNIN]
pIC50 [1]: 9.10

SMILES: CCN(CC)c1ccc2cc(C(CC(C)=O)SC[C@H](NC(=O)CC[C@H](N)C(=O)O)C(=O)NCC(=O)O)c(=O)oc2c1 (some centres undefined)
K [10]: 0.007 M⁻¹ s⁻¹

pIC50 [1]: 9.52
SMILES: CO[C@H]1OC(=O)/C(=C\N(C2CC2)C2CC2)C2=C(O)C(=O)C3=C([C@H](OC(C)=O)C[C@]4(C)C(=O)CC[C@@H]34)[C@]21C

SMILES: C#CC(=O)OCC [PROPYNOIC ACID ETHYL ESTER]
K [5]: 105 M⁻¹ s⁻¹
pEC50 (Tetrahymena pyriformis): 4.77
